For this test, the system named is M. tuberculosis H37Rv growth inhibition with meropenem. In words: dose response, H37Rv, with and without meropenem (AID 434987).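 Further: growth over 7 days at 37 °C before Alamar Blue read on day 9.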
Setting [1] is: M. tuberculosis H37Rv growth inhibition, measured here: IC50 without meropenem.
Setting [2] is: M. tuberculosis H37Rv growth inhibition, measured here: IC90 without meropenem.
Where [3] appears, read: measured here: IC90 with meropenem.

Activity calls are given as the source filed them. How the calls were made is not given here.

For `Cn1nnnc1Sc1ncnc2scc(-c3cccc(F)c3)c12`, the IC50 – broadly, the concentration at which inhibition is half-maximal – was 15.4 µM. In addition, the IC50 under setting [1] is above 100 µM. Also, the IC90 – broadly, the point of the concentration-response curve where the effect stands at 90% – under setting [2] is above 100 µM. The compound further had an IC90 under setting [3] above 100 µM.
Consider `CCC(C(=O)NC1C(=O)N2C(C(=O)O)=C(CSc3nnc(C)s3)CSC12)c1ccccc1` (stereo unspecified), for which the IC50 is 0.587 µM. The IC50 under setting [1] was above 100 µM. The compound also showed an IC90 under setting [2] above 100 µM. Under setting [3], this compound came in with an IC90 of 1.57 µM.
For `O=C(N/N=C/c1ccc([N+](=O)[O-])o1)c1ccccc1-n1cccc1`, the IC50 is 4.74 µM. The IC50 under setting [1] came out at 13.9 µM. In addition, under setting [2], the 90% effect concentration (IC90) was 35 µM. For the same compound, under setting [3], the IC90 was found to be 29.4 µM.
Consider `Cc1c(C(=O)c2ccccc2)oc2ccc3ccccc3c12`, for which the IC50 is > 100 µM (inactive). For the same compound, the IC50 under setting [1] was above 100 µM. In addition, the IC90 under setting [2] was above 100 µM. Moreover, the concentration for an effect of 90% (IC90) under setting [3] is above 100 µM.
As to `O=C(CNc1ccccc1Cl)Nc1cc(S(=O)(=O)N2CCOCC2)ccc1Cl`, the IC50 is > 100 µM (inactive). The compound also registered a half-maximal inhibitory concentration (IC50) under setting [1] above 100 µM. Under setting [2], this compound yielded an IC90 above 100 µM. The compound further had an IC90 under setting [3] above 100 µM.
In the case of `CC(C)(C)NCCCOc1ccc(Cl)cc1C(C)(C)C`, the IC50 was 24.8 µM (inactive). Under setting [1], this compound registered an IC50 of 45.9 µM. Under setting [2], the IC90 was found to be 51.6 µM. The compound also gave an IC90 under setting [3] of 26.9 µM.
As to `C[C@H](NC(=O)c1[nH]cnc1C(=O)Nc1ccc(Cl)cc1)C(=O)OC(C)(C)C`, the half-maximal inhibitory concentration (IC50) is 10.4 µM. For the same compound, the IC50 under setting [1] was above 100 µM. Besides, under setting [2], the IC90 was above 100 µM. Further, the IC90 under setting [3] was above 100 µM.
Turning to `NC(=O)C1CCCN(C(=O)c2ccc(NC(=O)c3cccs3)cc2)C1` (stereo unspecified), the IC50 is > 100 µM (inactive). Moreover, the IC50 under setting [1] is above 100 µM. In addition, under setting [2], the IC90 is above 100 µM. Under setting [3], this compound gave an IC90 above 100 µM.
As to `CC(C)(C)c1ccc(OCc2ccc(C(=O)N/N=C3\CC4CC=CC34)cc2)cc1` (stereo unspecified), the IC50 was 26.2 µM (inactive). Further, the IC50 under setting [1] was 31.2 µM. In addition, the IC90 under setting [2] amounted to 46.5 µM. In addition, under setting [3], the IC90 was determined as 45.3 µM.
For `O=C1C(Cl)=C(N2CCCCC2)C(=O)N1c1ccccc1` the same measures were 23.9 µM, above 100 µM, above 100 µM and above 50 µM.
On the same counts, the results for `CCOC(=O)c1nn(-c2ccc(F)cc2)c2nc(Nc3ccccc3)cc(=O)n12` are > 100 µM (inactive), above 100 µM, above 100 µM and above 100 µM.
In the case of `CCO[C@H]1OC(C(=O)NCc2nc3ccccc3[nH]2)=C[C@@H](c2ccc(C(F)(F)F)cc2)[C@@H]1CCCO`, the IC50 was > 100 µM (inactive). The same compound displayed an IC50 under setting [1] above 100 µM. The same compound had a 90% effect concentration (IC90) under setting [2] above 100 µM. Moreover, the IC90 under setting [3] is above 100 µM.
In the case of `CCc1ccc(NC(=S)Nc2ccc(S(=O)(=O)Nc3ncccn3)cc2)cc1`, the IC50 is 61.4 µM (inactive). Moreover, the IC50 under setting [1] is above 100 µM. Under setting [2], this compound showed a 90% effect concentration (IC90) above 100 µM. The IC90 under setting [3] is above 100 µM.
For the compound `S=C(Nc1ccccc1Cl)N1CCCC(c2ccccc2)=N1`, the IC50 is > 100 µM (inactive). Under setting [1], this compound displayed an IC50 of 68.9 µM. The IC90 under setting [2] was determined as 87.8 µM. For the same compound, the 90% effect concentration (IC90) under setting [3] is above 100 µM.
Take `Cc1ccn2c(CNCCn3nc(C)cc3C)c(C(=O)N3CCCCCC3)nc2c1`: the IC50 is > 100 µM (inactive). Also, the IC50 under setting [1] is above 100 µM. The same compound had an IC90 under setting [2] above 100 µM. The same compound gave an IC90 under setting [3] above 100 µM.
On to `COc1ccc(C(=O)NC(=S)NC(C)(C)C)cc1Br`, for which the IC50 was > 100 µM (inactive). Also, the IC50 under setting [1] is above 100 µM. Also, the IC90 under setting [2] is above 100 µM. The compound further returned an IC90 under setting [3] above 100 µM.
As to `O=C(Nc1nnc(-c2ccccc2SCc2ccccc2F)s1)Nc1ccccc1F`, the IC50 is > 100 µM (inactive). Under setting [1], this compound registered an IC50 above 100 µM. Besides, the IC90 under setting [2] was above 100 µM. Further, the IC90 under setting [3] is above 100 µM.
For `CCC(=O)c1ccc(OCc2ccc(C(=O)OC)cc2)c(OC)c1`, the IC50 was 27.9 µM. For the same compound, the IC50 under setting [1] is above 100 µM. Further, the IC90 under setting [2] is above 100 µM. This compound also displayed an IC90 under setting [3] above 100 µM.
With `Cc1cc(C)c(N=Cc2c(O)n(-c3nccs3)c(=O)c3ccccc23)c(C)c1`, the IC50 was > 100 µM (inactive). Also, the IC50 under setting [1] is above 100 µM. Further, the IC90 under setting [2] was above 100 µM. For the same compound, the concentration for an effect of 90% (IC90) under setting [3] is above 100 µM.
In the case of `CCC(C)C(NC(N)=O)C(=O)Nc1ccc(OCc2ccccc2)cc1` (stereo unspecified), the IC50 was > 100 µM (inactive). In addition, the IC50 under setting [1] is above 100 µM. Under setting [2], this compound gave an IC90 above 100 µM. This compound also showed an IC90 under setting [3] above 100 µM.
For the compound `BrC(=C\c1ccccc1)/C=N/N1CCN(c2ccccn2)CC1`, the IC50 was > 100 µM (inactive). The compound further returned an IC50 under setting [1] above 100 µM. In addition, the IC90 under setting [2] was above 100 µM. The IC90 under setting [3] was above 100 µM.
For the compound `O=C(Nc1nc2ccccc2[nH]1)c1ccccc1F`, the IC50 is > 100 µM (inactive). The same compound returned an IC50 under setting [1] above 100 µM. The IC90 under setting [2] is above 100 µM. The IC90 under setting [3] was above 100 µM.
For `CCCCNC(=O)/C(=C/c1ccccc1)NC(C)=O`, the IC50 was > 100 µM (inactive). In addition, the IC50 under setting [1] is above 100 µM. Also, the IC90 under setting [2] was above 100 µM. Besides, under setting [3], the IC90 is above 100 µM.
With `O=C(Nc1ccc(Br)cc1)c1cccnc1N1CCCCC1`, the IC50 was > 100 µM (inactive). In addition, the IC50 under setting [1] is above 100 µM. For the same compound, the IC90 under setting [2] is above 100 µM. Besides, under setting [3], the IC90 is above 100 µM.
Turning to `CCOc1ccc2nc(SC3CC(=O)N(c4ccc(OC)cc4)C3=O)sc2c1` (stereo unspecified), the IC50 is > 100 µM (inactive). The IC50 under setting [1] was above 100 µM. This compound also registered an IC90 under setting [2] above 100 µM. The compound further gave an IC90 under setting [3] above 100 µM.
As to `COc1ccc2cc(C3=CCCCC3)ncc2c1`, the IC50 is 74.8 µM (inactive). This compound registered an IC50 under setting [1] above 100 µM. Under setting [2], this compound registered an IC90 above 100 µM. In addition, the IC90 under setting [3] was above 100 µM.
As to `O=S1(=O)CCO[C@H]2Cc3ccccc3[C@H]2N1Cc1ccc(F)cc1`, the IC50 is > 100 µM (inactive). Also, the IC50 under setting [1] is above 100 µM. The compound further displayed an IC90 under setting [2] above 100 µM. Besides, the IC90 under setting [3] was above 100 µM.
`C/C(=N\NC(=S)Nc1ccccc1C)c1ccc(O)cc1`: the IC50 was 0.552 µM. Moreover, under setting [1], the IC50 stood at 21.6 µM. Moreover, the IC90 under setting [2] worked out at 24.7 µM. The compound also gave an IC90 under setting [3] of 7.97 µM.
In the case of `CCN1C(=O)[C@@H]2[C@@H](c3ccc(-c4ccc(Cl)c(Cl)c4)c(OC)c3)N3CCC[C@@]3(C(=O)OC)[C@@H]2C1=O`, the IC50 is > 100 µM (inactive). This compound also came in with an IC50 under setting [1] above 100 µM. The concentration for an effect of 90% (IC90) under setting [2] was above 100 µM. Moreover, under setting [3], the IC90 was above 100 µM.
As for `Cc1ccccc1OCC(=O)Nc1ccccc1N1CCOCC1`, the IC50 is 51.3 µM (inactive). Under setting [1], the IC50 is above 100 µM. Under setting [2], this compound gave a concentration for an effect of 90% (IC90) above 100 µM. Under setting [3], this compound displayed an IC90 above 100 µM.
Take `CN(C)CCCN(C(=O)/C=C/c1cccs1)c1nc2ccc(F)cc2s1`: the IC50 was 45.2 µM (inactive). Under setting [1], this compound had a half-inhibitory concentration (IC50) of 45.8 µM. The concentration for an effect of 90% (IC90) under setting [2] was 49.2 µM. Also, the IC90 under setting [3] is 48.4 µM.
On the same counts, the results for `Cc1c(-c2ccccc2)sc(Br)c1C(=O)N1CCOCC1` are > 100 µM (inactive), above 100 µM, above 100 µM and above 100 µM.
Regarding `O=C(c1cc2c(s1)CCCC2)n1cccn1`, the IC50 was 93.4 µM (inactive). For the same compound, the IC50 under setting [1] was above 100 µM. The IC90 under setting [2] is above 100 µM. The IC90 under setting [3] was above 100 µM.
As for `Cc1cccnc1NC(=O)c1c(O)c2cccc3c2n(c1=O)CCC3`, the IC50 is 94.4 µM (inactive). Under setting [1], this compound registered an IC50 above 100 µM. This compound also came in with an IC90 under setting [2] above 100 µM. The IC90 under setting [3] is above 100 µM.
As for `CC1CCN(C(=S)NC(=O)c2ccccc2)CC1`, the IC50 is 12 µM. Moreover, the concentration for half-maximal inhibition (IC50) under setting [1] was 40.7 µM. Further, the IC90 under setting [2] came out at 77.6 µM. For the same compound, under setting [3], the IC90 is 13.6 µM.
For `CC1CN(C2CCCCC2)c2nc3c(c(=O)[nH]c(=O)n3C)n2C1` (stereo unspecified) the same measures were > 100 µM (inactive), above 100 µM, above 100 µM and above 100 µM.
In the case of `CCOC(=O)c1nc(N2CCN(C(=O)OCC)CC2)c2c3c(sc2n1)CCCC3`, the IC50 is 39.5 µM (inactive). Further, under setting [1], the IC50 came to 60.6 µM. Moreover, the IC90 under setting [2] is 96.6 µM. The compound further had an IC90 under setting [3] of 40.9 µM.
For `COc1ccc(N2C(=O)NC(=O)/C(=C\c3ccc([N+](=O)[O-])s3)C2=O)cc1` the same measures were 16.3 µM (inactive), 22.9 µM, 25.7 µM and 21.3 µM.
On the same counts, the results for `Cc1ccc(C)c(N2CCN(C3CCCC(C)C3)CC2)c1` (stereo unspecified) are 37.9 µM (inactive), 48.7 µM, above 100 µM and 48.2 µM.
In the case of `CC(C)CC(=O)N1CCN(c2ccc([N+](=O)[O-])c(NCc3ccccc3)c2)CC1`, the IC50 was 44.9 µM (inactive). Under setting [1], the IC50 came out at 46.7 µM. For the same compound, the IC90 under setting [2] turned out to be 51.5 µM. This compound gave an IC90 under setting [3] of 48.6 µM.
For `CN(C)S(=O)(=O)c1ccc(NC(=O)c2cc3ccccc3o2)cc1` the same measures were > 100 µM (inactive), above 100 µM, above 100 µM and above 100 µM.
On the same counts, the results for `Cc1ccc(-n2ncc(-c3nnc(SCC(=O)NC4CCCC4)o3)c2N)cc1C` are > 100 µM (inactive), above 100 µM, above 100 µM and above 100 µM.
On the same counts, the results for `Nc1c(C(=O)NC2CC2)c2nc3ccccc3nc2n1-c1ccc2c(c1)OCO2` are 95 µM (inactive), 88.5 µM, above 100 µM and above 100 µM.
For `O=C(N/N=C/c1c(Cl)cccc1Cl)c1cccc(F)c1`, the IC50 was > 100 µM (inactive). Further, under setting [1], the IC50 was above 100 µM. Under setting [2], the IC90 was above 100 µM. This compound also yielded an IC90 under setting [3] above 100 µM.
